These results are taken from PubChem BioAssay (NCI).

Where “and” joins values, the source holds several entries; their conditions need not be identical. Identical values can stand only once.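 48-hour exposure; five concentrations; linearly interpolated endpoints. Abbreviation: GI50, concentration required for 50% inhibition of growth. TGI marks complete inhibition of growth.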

Test systems include NCI-H522 lung; KM12 colon; CCRF-CEM leukemia; T-47D breast; OVCAR-3 ovarian; HS 578T breast; CAKI-1 renal; HCT-116 colon; K-562 leukemia; HOP-92 NSCLC.
Test in all cases: NCI-60 cell line screen, 48 h

As for `COc1nc2c(c(=O)n1C)N(C(C)=O)C1C(N2)OCC(OC(C)=O)C1OC(C)=O` (stereo unspecified), the TGI in the assay with NCI-H522 lung, in the assay on KM12 colon, with CCRF-CEM leukemia, with T-47D breast, with OVCAR-3 ovarian and in the assay with HS 578T breast was above 10 µM in each case. Also, the TGI in the assay with CAKI-1 renal, in the assay with HCT-116 colon, with K-562 leukemia and in the assay on HOP-92 NSCLC was above 10 µM each time.
`C=Cc1c(C)c(OC)cc2c1Oc1ccc(OC)c(C)c1CC2`: the TGI in the assay on NCI-H522 lung, with KM12 colon, in the assay with CCRF-CEM leukemia, in the assay with T-47D breast, in the assay on HS 578T breast and in the assay on CAKI-1 renal was above 100 µM in each case. Moreover, the TGI in the assay with HCT-116 colon, in the assay with K-562 leukemia and in the assay with HOP-92 NSCLC was above 100 µM throughout.
With `COCn1c2ccc(OC(C)=O)cc2c2c(=O)oc(N(C)C)nc21`, the TGI with NCI-H522 lung, in the assay on KM12 colon, in the assay with CCRF-CEM leukemia, with T-47D breast, in the assay on HS 578T breast and in the assay on CAKI-1 renal was above 100 µM each time. The TGI with HCT-116 colon, with K-562 leukemia and in the assay on HOP-92 NSCLC was above 100 µM in each case.
Consider `O=c1oc2ccccc2c2c(=O)c3ccc(OC/C(=N/O)c4ccc(Cl)cc4)cc3oc12`, for which the TGI is 14 µM in the assay on KM12 colon; 60.8 µM in the assay on CCRF-CEM leukemia; 88.4 µM in the assay with T-47D breast; 10.9 µM in the assay with OVCAR-3 ovarian; 42.1 µM with HS 578T breast; 24 µM in the assay with CAKI-1 renal. The TGI amounted to 24 µM in the assay with HCT-116 colon, 12.1 µM in the assay with K-562 leukemia and 25.1 µM in the assay on HOP-92 NSCLC.
On to `COC(=O)C1CCC(=O)N1CN(C(C)=O)c1ccccc1` (stereo unspecified), for which the TGI in the assay with NCI-H522 lung, in the assay with KM12 colon, with CCRF-CEM leukemia, in the assay on T-47D breast, with OVCAR-3 ovarian and in the assay on HS 578T breast was above 100 µM throughout. Also, the TGI in the assay with CAKI-1 renal, in the assay with HCT-116 colon, in the assay on K-562 leukemia and in the assay with HOP-92 NSCLC was above 100 µM in each case.
Consider `CC1=NN(c2ccccc2)C(=O)/C1=C/c1ccc(O)cc1`, for which the TGI with KM12 colon, in the assay with CCRF-CEM leukemia, with T-47D breast, with OVCAR-3 ovarian, in the assay on HS 578T breast and with CAKI-1 renal was above 100 µM in each case. Also, the TGI in the assay on HCT-116 colon, with K-562 leukemia and in the assay with HOP-92 NSCLC was above 100 µM in each case.
Take `CCCCCCNC(=O)c1cnc(Cl)cn1`: the TGI in the assay on NCI-H522 lung is 0.552 µM; in the assay on KM12 colon, 29.3 µM; in the assay with CCRF-CEM leukemia it was above 100 µM; with T-47D breast, above 100 µM; in the assay on HS 578T breast, 44.4 µM; with CAKI-1 renal, 2.39 µM. Moreover, the TGI in the assay with HCT-116 colon is 30.7 µM; in the assay on K-562 leukemia it was 40.2 µM; in the assay with HOP-92 NSCLC it was above 100 µM.
`O=NC1C(Cl)C2CC1C1C(Br)C(Br)CC21` (stereo unspecified): the TGI in the assay on NCI-H522 lung, in the assay on KM12 colon, in the assay on CCRF-CEM leukemia, in the assay on T-47D breast, with OVCAR-3 ovarian and in the assay with HS 578T breast was above 100 µM each time. Besides, the TGI with CAKI-1 renal, with HCT-116 colon, with K-562 leukemia and with HOP-92 NSCLC was above 100 µM in each case.
As for `C#CCOCC12C=CC(O1)C1C(=O)N(C)C(=O)C12` (stereo unspecified), the TGI in the assay on NCI-H522 lung, in the assay with KM12 colon, with CCRF-CEM leukemia, with T-47D breast, in the assay with OVCAR-3 ovarian and in the assay with HS 578T breast was above 100 µM each time. The TGI in the assay with CAKI-1 renal, in the assay on HCT-116 colon, with K-562 leukemia and with HOP-92 NSCLC was above 100 µM each time. The GI50 in the assay on HS 578T breast is > 100 µM and 20 µM; with CAKI-1 renal, above 100 µM; in the assay on K-562 leukemia, 46.4 µM and > 100 µM; with HOP-92 NSCLC, above 100 µM.
Consider `O=C(O[C@H]1[C@@H](O)[C@H](n2cnc3c(Cl)ncnc32)O[C@@H]1COC(c1ccccc1)(c1ccccc1)c1ccccc1)c1ccccc1`, for which the TGI was 91.5 µM in the assay on NCI-H522 lung; 41.7 µM in the assay with KM12 colon; above 100 µM in the assay with CCRF-CEM leukemia; 24.9 µM in the assay on T-47D breast; 35 µM in the assay on OVCAR-3 ovarian; 8.78 µM with HS 578T breast. For the same molecule, the TGI in the assay on CAKI-1 renal was 10.1 µM; in the assay with HCT-116 colon, above 100 µM; in the assay on K-562 leukemia, above 100 µM; in the assay with HOP-92 NSCLC, 44.8 µM.
`CCCC(=O)NC1=C(NCC)C(=O)c2ccccc2C1=O`: the TGI in the assay with NCI-H522 lung, with KM12 colon, in the assay on CCRF-CEM leukemia, in the assay with T-47D breast, with OVCAR-3 ovarian and in the assay with HS 578T breast was above 100 µM each time. The TGI in the assay with HCT-116 colon, in the assay on K-562 leukemia and with HOP-92 NSCLC was above 100 µM each time.
As for `CC1(CCC2C=CCC2)CCCNC1=S` (stereo unspecified), the TGI in the assay with KM12 colon, in the assay with CCRF-CEM leukemia, in the assay with T-47D breast, in the assay with OVCAR-3 ovarian, with HS 578T breast and in the assay with HCT-116 colon was above 10 µM in each case. For the same molecule, the TGI in the assay with K-562 leukemia and in the assay on HOP-92 NSCLC was above 10 µM each time.
Consider `O=c1oc2ccccc2c(Nc2ccc3c(c2)S(=O)(=O)c2ccccc2O3)c1[N+](=O)[O-]`, for which the TGI in the assay with NCI-H522 lung is 42.9 µM; in the assay with KM12 colon, above 100 µM; with CCRF-CEM leukemia, 83.5 µM; with T-47D breast, 62.3 µM; in the assay on OVCAR-3 ovarian, 79 µM; in the assay on HS 578T breast, above 100 µM. Moreover, the TGI with CAKI-1 renal is 51.3 µM; with HCT-116 colon, 65 µM; in the assay with K-562 leukemia it was 71.3 µM; with HOP-92 NSCLC, 55.9 µM.
